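Growth conditions: 96-well plates. Treatment: test compound, 48 hours, 5 concentrations. Analysis: linear interpolation between bracketing concentrations; unreached endpoints set to highest concentration. Here, GI50 denotes the concentration required for 50% inhibition of growth.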 Active and inactive are the calls of the source. Rule as the data show it: active = GI50 up to about 1.1 µM and inactive = higher.
Experiments:
Test in all cases: NCI tumour cell line growth inhibition, 48 h
[1] = tested on: OVCAR-3
[2] = tested on: HOP-62
[3] = tested on: OVCAR-4
[4] = tested on: NCI-H226
[5] = tested on: CAKI-1
[6] = tested on: M14
[7] = tested on: BT-549
[8] = tested on: SF-295
[9] = tested on: SN12C
[10] = tested on: SF-268
[11] = tested on: NCI-H522
[12] = tested on: Malme-3M
[13] = tested on: A498
[14] = tested on: K562
[15] = tested on: ACHN
[16] = tested on: SK-MEL-5
[17] = tested on: NCI-H460
[18] = tested on: HOP-92
[19] = tested on: NCI/ADR-RES
[20] = tested on: OVCAR-8

Structure (SMILES)	GI50 [1]	GI50 [2]	GI50 [3]	GI50 [4]	GI50 [5]	GI50 [6]	GI50 [7]	GI50 [8]	GI50 [9]	GI50 [10]	GI50 [11]	GI50 [12]	GI50 [13]	GI50 [14]	GI50 [15]	GI50 [16]	GI50 [17]	GI50 [18]	GI50 [19]	GI50 [20]
O=C(O)c1cc(-c2ccc(-c3ccccc3)cc2)nc2cc3ccccc3cc12	47.9 µM (inactive)	30.3 µM (inactive)	29.4 µM (inactive)	35.7 µM (inactive)	42 µM (inactive)	> 100 µM (inactive)	35.9 µM (inactive)	34.8 µM (inactive)	61.9 µM (inactive)	35.2 µM (inactive)	27.7 µM (inactive)	84.5 µM (inactive)	> 100 µM (inactive)	14.2 µM (inactive)	46.6 µM (inactive)	26.4 µM (inactive)	6.35 µM (inactive)	28.2 µM (inactive)	75.7 µM (inactive)	57.1 µM (inactive)
Oc1cc(CF)nc(S)n1	> 100 µM (inactive)	> 100 µM (inactive)	> 100 µM (inactive)	> 100 µM (inactive)	> 100 µM (inactive)	> 100 µM (inactive)	> 100 µM (inactive)	> 100 µM (inactive)	> 100 µM (inactive)	> 100 µM (inactive)	> 100 µM (inactive)	> 100 µM (inactive)	> 100 µM (inactive)	> 100 µM (inactive)	> 100 µM (inactive)	> 100 µM (inactive)	> 100 µM (inactive)	> 100 µM (inactive)	> 100 µM (inactive)	> 100 µM (inactive)
CCNC(=S)NNC(=O)CSc1nc2ccc(I)cc2c(=O)n1Cc1ccccc1	18.2 µM (inactive)	35.8 µM (inactive)	10.8 µM (inactive)	10.5 µM (inactive)	0.374 µM (active)	38.4 µM (inactive)	> 54.1 µM (inactive)	25.4 µM (inactive)	10.2 µM (inactive)	31.9 µM (inactive)	13.1 µM (inactive)	23.9 µM (inactive)	14.5 µM (inactive)	10.6 µM (inactive)	5.74 µM (inactive)	8.65 µM (inactive)	12.6 µM (inactive)	17.3 µM (inactive)	22 µM (inactive)	22 µM (inactive)
CC(C)=CCC[C@@H](C)C1=C(O)C(O)C(C)=C2N=C(c3ccccc3)C(=O)OC21 (stereo not given in full)	1.24 µM (inactive)	3.71 µM (inactive)	4.41 µM (inactive)	2.88 µM (inactive)	2.39 µM (inactive)	4.71 µM (inactive)	2.15 µM (inactive)	2.42 µM (inactive)	1.43 µM (inactive)	1.53 µM (inactive)	0.624 µM (active)	1.14 µM (inactive)	2.81 µM (inactive)	1.24 µM (inactive)	2.16 µM (inactive)	1.29 µM (inactive)	1.19 µM (inactive)	0.723 µM (active)	0.794 µM (active)	0.933 µM (active)
COc1ccc(/C=C2\CCC(CNc3ccc(S(N)(=O)=O)cc3)C2=O)cc1 (stereo not given)	9.04 µM (inactive)	37.8 µM (inactive)	31.6 µM (inactive)	> 69.5 µM (inactive)	3.27 µM (inactive)	15.5 µM (inactive)	18.7 µM (inactive)	> 67.3 µM (inactive)	18.6 µM (inactive)	22.5 µM (inactive)	4.52 µM (inactive)	16 µM (inactive)	44.4 µM (inactive)	1.51 µM (inactive)	23.1 µM (inactive)	16.3 µM (inactive)	31.3 µM (inactive)	8.53 µM (inactive)	31.6 µM (inactive)	18 µM (inactive)
COc1ccc2c(cnc3c4cc(OC)c(OC)cc4ccc23)c1	> 100 µM (inactive)	> 100 µM (inactive)	> 100 µM (inactive)	> 100 µM (inactive)	> 100 µM (inactive)	> 100 µM (inactive)	> 100 µM (inactive)	> 100 µM (inactive)	> 100 µM (inactive)	> 100 µM (inactive)	> 100 µM (inactive)	> 100 µM (inactive)	> 100 µM (inactive)	> 100 µM (inactive)	> 100 µM (inactive)	> 100 µM (inactive)	> 100 µM (inactive)	> 100 µM (inactive)	> 100 µM (inactive)	> 100 µM (inactive)
CC1=NN(c2cccc(Cl)c2)C2(C1)SCC(=O)N2c1nc2ccccc2s1 (stereo not given)	16.2 µM (inactive)	19.4 µM (inactive)	34 µM (inactive)	11.6 µM (inactive)	32.6 µM (inactive)	26.7 µM (inactive)	29.3 µM (inactive)	23.2 µM (inactive)	22.1 µM (inactive)	31.2 µM (inactive)	25.9 µM (inactive)	34.3 µM (inactive)	27.9 µM (inactive)	18.2 µM (inactive)	26.8 µM (inactive)	17.5 µM (inactive)	21.6 µM (inactive)	32.8 µM (inactive)	32.1 µM (inactive)	35.6 µM (inactive)
CCOC(=O)c1c2c(n(-c3ccc(C)cc3)c1C)-c1ccccc1C(=O)C2(C(=O)OCC)C(=O)OCC	25.3 µM (inactive)	78.7 µM (inactive)	30.8 µM (inactive)	55 µM (inactive)	39.9 µM (inactive)	60.3 µM (inactive)	24.8 µM (inactive)	37.9 µM (inactive)	34.4 µM (inactive)	34.3 µM (inactive)	25.1 µM (inactive)	30.1 µM (inactive)	46.6 µM (inactive)	14.5 µM (inactive)	44.3 µM (inactive)	19.2 µM (inactive)	35.5 µM (inactive)	27.6 µM (inactive)	33.4 µM (inactive)	29.2 µM (inactive)
CC(NC(=O)C(Cc1ccc(OC(=O)c2ccccc2)cc1)NC(=O)OC(C)(C)C)C(=O)NCC(=O)NC(Cc1ccccc1)C(=O)NN (stereo not given)	57.9 µM (inactive)	83 µM (inactive)	96.8 µM (inactive)	> 100 µM (inactive)	89.1 µM (inactive)	35.1 µM (inactive)	55.5 µM (inactive)	46.9 µM (inactive)	> 10 µM (inactive)	54.6 µM (inactive)	29.6 µM (inactive)	64.9 µM (inactive)	15 µM (inactive)	20 µM (inactive)	> 100 µM (inactive)	34.7 µM (inactive)	49.2 µM (inactive)	98.2 µM (inactive)	> 100 µM (inactive)	65 µM (inactive)
COc1cc(Oc2nc3c(N)cc(C(F)(F)F)cc3nc2-c2ccccc2)cc(OC)c1OC	1.3 µM (inactive)	3.29 µM (inactive)	19.2 µM (inactive)	12.8 µM (inactive)	3.98 µM (inactive)	5.81 µM (inactive)	4.03 µM (inactive)	1.95 µM (inactive)	8.07 µM (inactive)	4.66 µM (inactive)	2.08 µM (inactive)	0.869 µM (active)	7.89 µM (inactive)	1.23 µM (inactive)	4.55 µM (inactive)	2.77 µM (inactive)	4.14 µM (inactive)	14.7 µM (inactive)	2.09 µM (inactive)	4.91 µM (inactive)
COc1ccc(-c2nc(N)c3ncn(C4OC(CO)C(O)C4O)c3n2)cc1 (stereo not given)	> 100 µM (inactive)	> 100 µM (inactive)	> 100 µM (inactive)	> 100 µM (inactive)	> 100 µM (inactive)	> 100 µM (inactive)	> 100 µM (inactive)	> 100 µM (inactive)	> 100 µM (inactive)	> 100 µM (inactive)	62.8 µM (inactive)	> 100 µM (inactive)	> 100 µM (inactive)	> 100 µM (inactive)	> 100 µM (inactive)	> 100 µM (inactive)	> 100 µM (inactive)	> 100 µM (inactive)	> 100 µM (inactive)	> 100 µM (inactive)
Cc1c2cccc-2ccc2c1[nH]c1ccc(Br)cc12	3.84 µM (inactive)	6.43 µM (inactive)	1.96 µM (inactive)	2.04 µM (inactive)	11.8 µM (inactive)	6.12 µM (inactive)	7.03 µM (inactive)	4.23 µM (inactive)	12.9 µM (inactive)	4.6 µM (inactive)	2.48 µM (inactive)	9.86 µM (inactive)	21.8 µM (inactive)	2.96 µM (inactive)	12.1 µM (inactive)	3.9 µM (inactive)	4.56 µM (inactive)	3.61 µM (inactive)	9.59 µM (inactive)	7.36 µM (inactive)
COc1cccc(C(=O)N[C@@H]2[C@H](O)[C@@H](CO)O[C@H]2n2cnc3c(N)ncnc32)c1	> 100 µM (inactive)	> 100 µM (inactive)	> 100 µM (inactive)	> 100 µM (inactive)	> 100 µM (inactive)	> 100 µM (inactive)	> 100 µM (inactive)	> 100 µM (inactive)	> 100 µM (inactive)	> 100 µM (inactive)	> 100 µM (inactive)	> 100 µM (inactive)	> 100 µM (inactive)	> 100 µM (inactive)	> 100 µM (inactive)	> 100 µM (inactive)	> 100 µM (inactive)	> 100 µM (inactive)	> 100 µM (inactive)	> 100 µM (inactive)
O=CN/C=C/c1cccc(O)c1	> 100 µM (inactive)	39.3 µM (inactive)	61.4 µM (inactive)	56.5 µM (inactive)	> 61.5 µM (inactive)	61.9 µM (inactive)	8.26 µM (inactive)	48.8 µM (inactive)	56.2 µM (inactive)	> 57.5 µM (inactive)	48.3 µM (inactive)	> 82.8 µM (inactive)	> 64.3 µM (inactive)	> 75.7 µM (inactive)	50 µM (inactive)	> 63.1 µM (inactive)	43.1 µM (inactive)	55.2 µM (inactive)	52.2 µM (inactive)	54.1 µM (inactive)

— ChEMBL document CHEMBL1201862, “PubChem BioAssay data set” (2004)
